Test results taken from US9150543B2, “Substituted indolyl alkyl amino derivatives as inhibitors of histone deacetylase” (Janssen Pharmaceutica N. V., priority 2004, dated 2015).
Converted amounts (≈) assume the structure as drawn.

Assays:
[1] = Solubility/stability at different pH's, chemiluminescent nitrogen detector (C.3.b); format: physicochemical; conditions: aqueous buffer; pH = 2.3
Source text: In a second method the solubility of a compound at different pH's can be measured with the use of a Chemiluminescent Nitrogen Detector (see example C.3.b).
The solubility of a compound, at different pH's, can also be measured with the use of a chemiluminescent nitrogen detector. (see Table F-3).

[2] = test system: A2780 ovarian carcinoma cells; assay: Antiproliferative activity on A2780 cells, MTT (C.2); format: cell-based; conditions: Homo sapiens, 96 h, four days of incubation, read-out: Cellular activity pIC50 C.2 (converted)
Protocol: All compounds tested were dissolved in DMSO and further dilutions were made in culture medium. Final DMSO concentrations never exceeded 0.1% (v/v) in cell proliferation assays. Controls contained A2780 cells and DMSO without compound and blanks contained DMSO but no cells. MTT was dissolved at 5 mg/ml in PBS. A glycine buffer comprised of 0.1 M glycine and 0.1 M NaCl buffered to pH 10.5 with NaOH (1N) was prepared (all reagents were from Merck).
The human A2780 ovarian carcinoma cells (a kind gift from Dr. T. C. Hamilton [Fox Chase Cancer Centre, Pennsylvania, USA]) were cultured in RPMI 1640 medium supplemented with 2 mM L-glutamine, 50 μg/ml gentamicin and 10% fetal calf serum. Cells were routinely kept as monolayer cultures at 37° C. in a humidified 5% CO2 atmosphere. Cells were passaged once a week using a trypsin/EDTA solution at a split ratio of 1:40. All media and supplements were obtained from Life Technologies. Cells were free of mycoplasma contamination as determined using the Gen-Probe Mycoplasma Tissue Culture kit (supplier: BioMerieux).
Cells were seeded in NUNC™ 96-well culture plates (Supplier: Life Technologies) and allowed to adhere to the plastic overnight. Densities used for plating were 1500 cells per well in a total volume of 200 μl medium. After cell adhesion to the plates, medium was changed and drugs and/or solvents were added to a final volume of 200 μl. Following four days of incubation, medium was replaced by 200 μl fresh medium and cell density and viability was assessed using an MTT-based assay. To each well, 25 μl MTT solution was added and the cells were further incubated for 2 hours at 37° C. The medium was then carefully aspirated and the blue MTT-formazan product was solubilized by addition of 25 μl glycine buffer followed by 100 μl of DMSO. […] Within an experiment, the results for each experimental condition are the mean of 3 replicate wells. For initial screening purposes, compounds were tested at a single fixed concentration of 10^−6 M. For active compounds, the experiments were repeated to establish full concentration-response curves. For each experiment, controls (containing no drug) and a blank incubation (containing no cells or drugs) were run in parallel. The blank value was subtracted from all control and sample values. For each sample, the mean value for cell growth (in absorbance units) was expressed as a percentage of the mean value for cell growth of the control. […] Herein the effects of test compounds are expressed as pIC50 (the negative log value of the IC50-value)(see Table F-3).

[3] = target: histone deacetylase (HeLa nuclear extracts); assay: In vitro assay for inhibition of histone deacetylase with fluorescent-labelled substrate (C.1.b); format: biochemical; conditions: Fluor de Lys substrate
Protocol: The HDAC Fluorescent Activity Assay/Drug Discovery Kit of Biomol (cat.No: AK-500-0001) was used. The HDAC Fluorescent Activity Assay is based on the Fluor de Lys (Fluorogenic Histone deAcetylase Lysyl) substrate and developer combination. The Fluor de Lys substrate, comprises an acetylated lysine side chain. Deacetylation of the substrate sensitizes the substrate so that, in the second step, treatment with the Fluor de Lys developer produces a fluorophore.
After 30 min, 1 volume of the developer was added. […] For each experiment, controls (containing HeLa nuclear extract and buffer), a blank incubation (containing buffer but no HeLa nuclear extract) and samples (containing compound dissolved in DMSO and further diluted in buffer and HeLa nuclear extract) were run in parallel. In first instance, compounds were tested at a concentration of 10^−5M. […] All sample were tested 4 times. In each test the blank value was subtracted from both the control and the sample values. The control sample represented 100% of substrate deactylation. For each sample the fluorescence was expressed as a percentage of the mean value of the controls. […] Herein the effects of test compounds are expressed as pIC50 (the negative log value of the IC50-value) (see Table F-3).

SMILES	solubility [1] [µg/mL]	IC50 [2] [µM]	Enzymatic activity pIC50 C.1.b [3]
Cn1cc(CNCC2CCN(c3ncc(C(=O)NO)cn3)CC2)c2ccccc21 [Compound 1a]	1400 (≈ 3.55 mM)	0.00631	–
O=C(NO)c1cnc(N2CCC(CNCc3cc4ccccc4s3)CC2)nc1 [Compound 9]	–	0.0794	8.3
O=C(NO)c1cnc(N2CCC(CNCc3c[nH]c4ccc(F)cc34)CC2)nc1 [Compound 13]	–	0.0316	6.0
COc1ccc2[nH]cc(CNCC3CCN(c4ncc(C(=O)NO)cn4)CC3)c2c1 [Compound 16]	–	0.0794	8.6
Cn1cc(CNCC2CCN(c3ncc(C(=O)NO)cn3)CC2)c2cc([N+](=O)[O-])ccc21 [Compound 18]	–	0.01	8.3
Cc1[nH]c2ccccc2c1CCNC1CCN(c2ncc(C(=O)NO)cn2)CC1 [Compound 29]	–	0.126	7.9
Cn1cc(CNCC2CCN(c3ncc(C(=O)NO)cn3)CC2)c2cccc(F)c21 [Compound 30]	2100 (≈ 5.09 mM)	0.0316	9.0
CCCn1cc(CCNCC2CCN(c3ncc(C(=O)NO)cn3)CC2)c2ccccc21 [Compound 31]	–	0.0398	8.2
Cc1cccc2c1c(CNCC1CCN(c3ncc(C(=O)NO)cn3)CC1)cn2C [Compound 38]	–	0.0316	>9.0
CCC(CC)n1cc(CNCC2CCN(c3ncc(C(=O)NO)cn3)CC2)c2ccccc21 [Compound 40]	–	0.0316	8.5
CCCn1cc(CNCC2CCN(c3ncc(C(=O)NO)cn3)CC2)c2ccc(Cl)cc21 [Compound 41]	–	1.58	8.4
Cc1ccc2c(c1)c(CNCC1CCN(c3ncc(C(=O)NO)cn3)CC1)c(C)n2C [Compound 42]	–	0.0316	8.3
O=C(NO)c1cnc(N2CCC(CNCc3cn(C4CCCC4)c4ccccc34)CC2)nc1 [Compound 46]	–	0.01	9.0
Cn1cc(CNCC2CCN(c3ncc(C(=O)NO)cn3)CC2)c2cc(F)ccc21 [Compound 51]	–	0.01	9.8
CCCn1cc(CNCC2CCN(c3ncc(C(=O)NO)cn3)CC2)c2cc(F)ccc21 [Compound 52]	–	0.00794	10.3
CC(C)n1cc(CNCC2CCN(c3ncc(C(=O)NO)cn3)CC2)c2ccccc21 [Compound 53]	–	0.01	10.0
O=C(NO)c1cnc(N2CCC(CNCc3cn(Cc4ccccc4)c4ccccc34)CC2)nc1 [Compound 54]	–	0.0126	10.2
Cn1cc(CNCC2CCN(c3ncc(C(=O)NO)cn3)CC2)c2ccc(Cl)cc21 [Compound 56]	–	0.0251	9.2
CCn1cc(CNCC2CCN(c3ncc(C(=O)NO)cn3)CC2)c2ccc(OC)cc21 [Compound 61]	–	0.0251	8.9
CCCn1cc(CNCC2CCN(c3ncc(C(=O)NO)cn3)CC2)c2ccccc21 [Compound 62]	–	0.01	9.5
O=C(NO)c1cnc(N2CCC(CNCc3cccc4cc[nH]c34)CC2)nc1 [Compound 63]	–	0.0316	>9.0
O=C(NO)c1cnc(N2CCC(CNCc3cccc4[nH]ccc34)CC2)nc1 [Compound 64]	–	0.0158	8.9
COc1ccc2c(c1)c(CCNCC1CCN(c3ncc(C(=O)NO)cn3)CC1)cn2C [Compound 74]	–	0.0794	8.2
Cc1[nH]c2ccccc2c1CCNCC1CCN(c2ncc(C(=O)NO)cn2)CC1 [Compound 76]	–	0.2	7.8
Cn1cc(CNCC2CCN(c3ccc(C(=O)NO)cn3)CC2)c2ccccc21 [Compound 80]	–	0.0794	7.8

The remaining lines, values ahead:

solubility [1] [µg/mL]	IC50 [2] [µM]	Enzymatic activity pIC50 C.1.b [3]	SMILES
2400 (≈ 6.31 mM)	0.0794	8.3	O=C(NO)c1cnc(N2CCC(CNCc3c[nH]c4ccccc34)CC2)nc1 [Compound 8]
3700 (≈ 9.7 mM)	0.0316	8.1	O=C(NO)c1cnc(N2CCC(CNCc3cc4ccccc4o3)CC2)nc1 [Compound 10]
2800 (≈ 7.1 mM)	0.0316	8.2	Cn1c(CNCC2CCN(c3ncc(C(=O)NO)cn3)CC2)cc2ccccc21 [Compound 11]
–	0.0794	8.2	Cc1ccc2[nH]cc(CNCC3CCN(c4ncc(C(=O)NO)cn4)CC3)c2c1 [Compound 12]
1700 (≈ 4.31 mM)	0.0398	8.4	Cc1cccc2c(CNCC3CCN(c4ncc(C(=O)NO)cn4)CC3)c[nH]c12 [Compound 14]
–	0.0316	8.5	O=C(NO)c1cnc(N2CCC(CNCc3c[nH]c4ccc(Br)cc34)CC2)nc1 [Compound 15]
–	0.158	7.8	O=C(NO)c1cnc(N2CCC(CNCCc3c[nH]c4ccc(Cl)cc34)CC2)nc1 [Compound 17]
–	0.0316	8.4	CCn1cc(CNCC2CCN(c3ncc(C(=O)NO)cn3)CC2)c2ccccc21 [Compound 34]
–	0.2	8.2	Cc1[nH]c2ccccc2c1CNCC1CCN(c2ncc(C(=O)NO)cn2)CC1 [Compound 35]
–	0.0316	8.6	Cc1cccc2c(CNCC3CCN(c4ncc(C(=O)NO)cn4)CC3)cn(C)c12 [Compound 37]
–	0.00631	>9.0	O=C(NO)c1cnc(N2CCC(CNCc3cn(CC4CC4)c4ccccc34)CC2)nc1 [Compound 48]
–	1.58	10.0	Cn1cc(CNCC2CCN(c3ncc(C(=O)NO)cn3)CC2)c2c(Cl)cccc21 [Compound 58]
–	0.02	9.0	Cn1cc(CNCC2CCN(c3ncc(C(=O)NO)cn3)CC2)c2cc3c(cc21)OCO3 [Compound 59]
–	0.2	7.6	CCC(=O)N(CCc1cn(C)c2ccc(Cl)cc12)CC1CCN(c2ncc(C(=O)NO)cn2)CC1 [Compound 69]
–	0.158	8.5	CCC(=O)N(CCc1cn(C)c2ccccc12)CC1CCN(c2ncc(C(=O)NO)cn2)CC1 [Compound 70]
–	0.316	7.5	CCC(=O)N(CCc1cn(C)c2cc(OC)ccc12)CC1CCN(c2ncc(C(=O)NO)cn2)CC1 [Compound 71]
–	0.158	7.9	CC(=O)N(Cc1cn(C)c2ccccc12)CC1CCN(c2ncc(C(=O)NO)cn2)CC1 [Compound 72]
–	0.0794	7.9	CCN(CCc1cn(C)c2cc(OC)ccc12)CC1CCN(c2ncc(C(=O)NO)cn2)CC1 [Compound 73]
–	0.0794	7.3	CCCn1cc(CCNCC2CCN(c3ncc(C(=O)NO)cn3)CC2)c2ccc(OC)cc21 [Compound 75]
–	0.0316	8.9	Cn1cc(CNCC2CCN(c3ncc(C(=O)NO)cn3)CC2)c2ccc(F)cc21 [Compound 81]
